Structures are written as SMILES. Converted amounts (≈) assume the structure as drawn. Like-named read-outs stand apart in the source and are kept apart here. Bounds are passed on as bounds.

The source of these data is US9993491B2, “Guanine riboswitch binding compounds and their use as antibiotics” (SOCPRA—SCIENCES ET GENIE S.E.C., priority 2009, dated 2018).

Data set [1] deals with S. aureus strain ATCC 29213. Briefly: MIC / growth inhibition, microdilution method. The format is cell-based. The note with it: for MIC: Staphylococcus aureus, ATCC29213, 24 h; for S. aureus growth inhibition: Yes/No. For orientation: In broth dilution the organism is exposed to a series of concentrations in liquid medium.
In data set [2] the test system is guanine xpt riboswitch from Streptococcus pyogenes (STPY-xpt). Briefly: Relative binding by displacement of 2-aminopurine from the STPY-xpt aptamer. The protocol: Shown in FIG. 4A is the structure of the guanine ligand and the compounds: 4-hydroxy-2,5,6-triaminopyrimidine shown as 2,5,6-triaminopyrimidine-4-one (compound 1.01), 2,4-diamino-6-hydroxypyrimidine shown as 2,6-diaminopyrimidine-4-one (compound 1.13) and 5,6-diamino-uracil (2AU) as well as their predicted hydrogen bonds (arrows). […] The experiment was performed as in for example Mulhbacher and Lafontaine, 2007. […] Briefly, STPY-xpt aptamers were incubated in the presence of the guanine-like ligand 2-aminopurine alone (Neg. control) or in the presence of 1 or 10 μM of the above-listed compounds. The relative binding affinity was obtained from the ability of a ligand to displace the 2-aminopurine from the guanine riboswitch STPY-xpt aptamer.

The test system of data set [3] is E. coli ATCC35695. Briefly: MIC, microdilution method in 96-well microplates. The note with it: for Antimicrobial activity on E. coli: E. coli strain ATCC 35695; for MIC: Escherichia coli, ATCC35695, 24 h, read-out: Minimum inhibitory concentration (MIC).
The test system of data set [4] is guanine riboswitch. Nature of the data set: Guanine riboswitch binding (Table 6). The conditions noted are these: Yes/No.
Data set [5] is described as follows: Tolerance of intramammary injection in cows. The format is in vivo, Holstein cows. The note with it: intramammary 100 mg, 250 mg or 500 mg per quarter, 4 cows, 48 h.
In data set [6] the test system is S. aureus genes. Briefly: Transcriptomic microarray analysis of more than 500 genes. The format is cell-based. The note with it: 30 min.
The subject of data set [7] is E. coli AcrAB—/—. Nature of the data set: microbe, parasite or virus in culture. The note with it: Escherichia coli, 24 h, read-out: Minimum inhibitory concentration (MIC).
Data set [8] deals with S. aureus SHY97-3906. Nature of the data set: Bactericidal activity, fold reduction of CFU/mL. The conditions noted are these: 600 μg/mL, 4 hours. The format is cell-based. Here is the method:
(§1) The bactericidal activity of compound 1.01 on various strains of S. aureus (including 3 chronic strains and 3 prototypical strains) was determined. These strains include prototypical S. aureus strains ATCC 29213, Newbould 305, SHY97-3906 as well as S. aureus strains isolated from persistent and chronic bovine mastitis cases (isolates #3, #557, #1290). C. difficile strain Cd6 was also examined. […] The results are summarized in Table 5 below and are expressed as the mean fold reduction of CFU/mL (i.e., the number of CFU/mL of control bacteria divided by the number of CFU/mL of treated bacteria).

Data set [9] has as its system S. aureus Chronic #3. Briefly: Bactericidal activity, fold reduction of CFU/mL. The format is cell-based. The note with it: 600 μg/mL, 4 hours. The protocol:
as §1

The test system of data set [10] is S. aureus ATCC 29213. Nature of the data set: Bactericidal activity, fold reduction of CFU/mL. The format is cell-based. The conditions noted are these: 600 μg/mL, 4 hours. Here is the method: as §1
Data set [11] relates to S. aureus Chronic #557. Nature of the data set: Bactericidal activity, fold reduction of CFU/mL. The format is cell-based. The note with it: 600 μg/mL, 4 hours. Here is the method: as §1
Data set [12] has as its system C. difficile (Cd6). Nature of the data set: Bactericidal activity, fold reduction of CFU/mL. The format is cell-based. The conditions noted are these: 600 μg/mL, 4 hours. The protocol: as §1
Data set [13] has as its system S. aureus Chronic #1290. Briefly: Bactericidal activity, fold reduction of CFU/mL. The format is cell-based. The conditions noted are these: 600 μg/mL, 4 hours. The protocol: as §1
Data set [14] deals with S. aureus Newbould 305. Nature of the data set: Bactericidal activity, fold reduction of CFU/mL. The conditions noted are these: 600 μg/mL, 4 hours. The format is cell-based. The protocol:
as §1

Data set [15] has as its system Bacillus halodurans, S. haemolyticus, S. aureus ATCC29213, SA228a, MRSA COL, Clostridium botulinum, Clostridium difficile Cd6 and 630, S. epidermidis. The format is cell-based.
The test system of data set [16] is S. aureus. Briefly: S. aureus infection of the mouse mammary glands, CFU count. The note with it: intra-mammary injection of 10 times the effective dose; treated 4 h after infection, glands excised 6 h later. The format is in vivo. The protocol:
The efficacy of compound 1.01 in treating a S. aureus infection of the mouse mammary glands was examined. Briefly, mouse mammary glands were infected with 100 CFU of S. aureus. Four hours after the inoculation, the glands were treated with vehicle (PBS), 10, 50 or 100 μg/gland of compound 1.01. Six hours later, glands were excised, homogenized and plated on Mueller-Hinton agar. CFU were then counted after 18 hours at 35° C. Each dot represents the CFU of each individual gland (n=6-12) and the median value for each group is indicated by the bar. Statistical differences (P<0.05) between CFU recovered from treated and untreated animals are shown by asterisks (non-parametric Kruskal-Wallis ANOVA with Dunn's post test).

The subject of data set [17] is E. coli Imp. Briefly: microbe, parasite or virus in culture. The conditions noted are these: Escherichia coli, 24 h, read-out: Minimum inhibitory concentration (MIC).
For data set [18], the system named is S. aureus strain ATCC 29213. The format is cell-based. The conditions noted are these: sub-inhibitory concentrations, MIC determined every 5 passages up to 30.
For data set [19], the system named is Bacillus subtilis, Enterococcus feacium, Listeria monocytogenes, Streptococcus dysgalactiae, Streptococus pyogenes, Streptococcus uberis. The format is cell-based.
The test system of data set [20] is S. aureus strain ATCC 29213. Nature of the data set: Growth as a function of time (CFU counts). The conditions noted are these: compared with ciprofloxacin. The format is cell-based.
Data set [21] relates to E. coli ATCC 35695. Nature of the data set: Antibiogram with 6-thioguanine. The format is cell-based. The note with it: 0.5 or 1 mg/mL; E. coli ATCC 35695 (lacks guaA riboswitch).
Data set [22] deals with methicillin resistant S. aureus. Briefly: Antibiogram with 6-thioguanine. The format is cell-based. The conditions noted are these: 0.5 or 1 mg/mL.
Setting [23] is: S. aureus ATCC 29213, 24 h, 37° C., read-out: MIC.
[24] abbreviates: compound at 10 μM, compared with 1 μM guanine.
Where [25] appears, read: S. aureus ATCC 29213, 24 h, 37° C., read-out: S. aureus growth inhibition, MIC.

As for `O=C(O)c1cn(C2CC2)c2cc(N3CCNCC3)c(F)cc2c1=O` [ciprofloxacin, reference compound], the MIC in [1] (setting [23]) worked out at 0.5 µg/mL (≈ 1.51 µM).

As to `O=c1[nH]c(=O)c2nc[nH]c2[nH]1` [xanthine], the Relative binding in data set [2] (setting [24]) stood at 0.08.

`Nc1[nH]c(=O)[nH]c(=O)c1N` displayed a Relative binding in [2] (setting [24]) of 0.05.

Turning to `Nc1ncnc2[nH]cnc12` [adenine], the Relative binding in [2] (setting [24]) is reported as 0.05.

In turn, `O=c1[nH]cnc2[nH]cnc12` [hypoxanthine] registered a Relative binding in data set [2] (setting [24]) of 0.50.

Regarding `Nc1nc(S)[nH]c(=O)c1N` [Compound 1.16, 4,5-diamino-6-hydroxy-2-mercaptopyrimidine], the “Antimicrobial activity on E. coli” value in data set [3] is “no antimicrobial activity”. Also, the MIC in data set [1] (setting [25]) came to 128 µg/mL (≈ 809 µM). Moreover, the “S. aureus growth inhibition” value in [1] was “Yes”. In [4], the Guanine riboswitch binding result is given as “Yes”.

For `Nc1nc(N)c(N)c(O)n1` [Compound 1.01, 4-hydroxy-2,5,6-triaminopyrimidine], the “Body temperature, milk appearance, milk somatic cell counts, milk quarter production” value in data set [5] is “no change in body temperature, milk appearance, milk somatic cell counts or individual milk quarter production”. For the setting “100 μg/gland, compared to PBS-treated glands”, the “Cytotoxicity upon histological observations of mammary tissues” value is “no apparent cytotoxicity”. Also, for the setting “mouse, in vivo”, the “Signs of toxicity in mice (posture, breathing, piloerection, movement)” value is “without causing any significant signs of toxicity”. The figures for the Genes repressed in data set [6] (600 μg/mL compound alone) and in [6] (600 μg/mL compound supplemented with 100 μM GMP) were greater than 75% and 20%, respectively. Further, the MIC in data set [7] was greater than 5000 µg/mL; in data set [3] it was greater than 5000 µg/mL; in data set [1] (setting [23]) it was roughly 600 µg/mL (≈ 4250 µM); in data set [17] it was greater than 5000 µg/mL. Further, the “Fold reduction of CFU/mL (control/treated), Mean (log10)” value in data set [8] was 6.35 log10; in data set [9], 5.11 log10; in data set [10], 6.67 log10; in [11], 4.38 log10; in data set [12], 5.42 log10; in [13], 5.42 log10. Further, the “Fold reduction of CFU/mL (control/treated), Mean (log10)” value in data set [14] amounted to 4.86 log10. In addition, the “Sensitivity of strains in antibiogram” value in data set [15] is given as “sensitive”; in data set [19], “insensitive”. Also, the “Reduction of bacterial counts” value in data set [16] is given as greater than 3 log10. The “Passages until resistance is selected” value in data set [18] is recorded as “at least 30 passages”. This compound also returned a Relative binding in data set [2] (setting [24]) of 0.26. Besides, in [20], the “Rapidity of anti-bacterial effect” value was “as rapid as that of the well-known antibiotic ciprofloxacin”.

`CC[C@H]1OC(=O)[C@H](C)[C@@H](O[C@H]2C[C@@](C)(OC)[C@@H](O)[C@H](C)O2)[C@H](C)[C@@H](O[C@@H]2O[C@H](C)C[C@H](N(C)C)[C@H]2O)[C@](C)(O)C[C@@H](C)C(=O)[C@H](C)[C@@H](O)[C@]1(C)O` [Erythromicin, reference compound]: the MIC in data set [7] was 1 to 4 µg/mL (≈ 1.36 to 5.45 µM); in data set [3] it was 128 µg/mL (≈ 174 µM); in data set [1] (setting [23]), 0.5 µg/mL (≈ 0.681 µM); in data set [17], 0.125 to 1 µg/mL (≈ 0.17 to 1.36 µM).

With `CN[C@H](CC(C)C)C(=O)N[C@H]1C(=O)N[C@@H](CC(N)=O)C(=O)N[C@H]2C(=O)N[C@H]3C(=O)N[C@H](C(=O)N[C@H](C(=O)O)c4cc(O)cc(O)c4-c4cc3ccc4O)[C@H](O)c3ccc(c(Cl)c3)Oc3cc2cc(c3O[C@@H]2O[C@H](CO)[C@@H](O)[C@H](O)[C@H]2O[C@H]2C[C@](C)(N)[C@H](O)[C@H](C)O2)Oc2ccc(cc2Cl)[C@H]1O` [Vancomycin, reference compound], the MIC in data set [7] was greater than 128 µg/mL; in data set [3] it was greater than 128 µg/mL; in [1], 1 µg/mL (≈ 0.69 µM); in data set [17] it was 0.25 µg/mL (≈ 0.173 µM).

Regarding `Nc1nc2ocnc2c(=O)[nH]1` [Compound 2.02, 5-Amino-6H-oxazolo[5,4-d]pyrimidin-7-one], the “Antimicrobial activity on E. coli” value in data set [3] is recorded as “no antimicrobial activity”. In addition, the “S. aureus growth inhibition, MIC” value in [1] (S. aureus ATCC 29213, 24 h, 37° C.) amounted to 1000 µg/mL. For the same compound, the MIC in data set [1] (setting [25]) worked out at 1020 µg/mL (≈ 6730 µM). Further, the “S. aureus growth inhibition” value in data set [1] was “Yes”. In addition, the Guanine riboswitch binding entry in [4] is “able to bind guanine riboswitch and Yes”.

For the compound `Nc1nc2nc(Cl)sc2c(=O)[nH]1` [Compound 2.17, 5-amino-2-chloro-2,3-dihydrothiazolo[4,5]pyrimidine-7-(6H)-one], the “Antimicrobial activity on E. coli” value in data set [3] is listed as “no antimicrobial activity”. In addition, the MIC in data set [1] (setting [25]) was 128 µg/mL (≈ 632 µM). The “S. aureus growth inhibition” value in [1] is reported as “Yes”. The Guanine riboswitch binding entry in [4] is recorded as “Yes”.

In data set [2] (compound at 1 μM), `Nc1nc2[nH]cnc2c(=O)[nH]1` [guanine] displayed a Relative binding of 1.

Take `Nc1nc2[nH]cnc2c(=S)[nH]1` [6-thioguanine]: the “Antibiotic activity in antibiogram” value in data set [21] and in [22] was “non-specific antibiotic activity” throughout. For the same compound, the Relative binding in [2] (setting [24]) is 0.14.

Turning to `Nc1cc(=O)[nH]c(N)n1` [Compound 1.13, 2,4-diamino-6-hydroxypyrimidine], the MIC is greater than 5000 µg/mL in data set [7], greater than 5000 µg/mL in data set [3], roughly 5000 µg/mL (≈ 39600 µM) in [1] (setting [23]) and greater than 5000 µg/mL in data set [17]. Moreover, the Relative binding in data set [2] (setting [24]) was 0.39.
